Assays:
Rac1/Trio = biological target: T1, Rac1/Trio (Homo sapiens, UniProt O75962); experiment: Nucleotide exchange kinetics on liposomes, Rac1 tethered by hexahistidine tag; assay type: biochemical; settings: 50 μM; Rac1 tethered to liposomes
T1 construct: human TRIO^DH1PH1 (1232-1550); made in house
Experimental: FIG. 2. Bragsin is a specific inhibitor of the ArfGEF BRAG2 • a. Bragsin1 has no effect on the Sec7 domain of human ArfGEFs in solution. Nucleotide exchange kinetics were measured by fluorescence kinetics in the presence of Bragsin1 (50 μM) or DMSO using purified Sec7 domains and a truncated version of Arf1 (D17Arf1), which can be activated in solution. […] Nucleotide exchange kinetics were determined in the presence of Bragsin1 (50 μM) or DMSO with ArfGEF constructs carrying membrane-binding domains and myristoylated Arf1. […] was artificially tethered to liposomes by a C-terminal hexahistidine tag as described in (Peurois, F. et al. Biochem J 474, 1259-1272 (2017). Representative kinetic profiles are given in FIG. 15. • c. Bragsin1 inhibits the activation of myristoylated Arf6 by BRAG2 on liposomes. Experiments were carried out as in FIG. 2b. Representative kinetic profiles are given in FIG. 16. • d. Dose-response of Bragsin1 and Bragsin2 towards myristoylated Arf1 and BRAG2 on liposomes. Experiments were carried out as in FIG. 2b. • e. Silencing of BRAG2 phenocopies the effect of Bragsin2 on the TGN46 compartment. […]
The effect of Bragsin1 on the GEF efficiency of representative human ArfGEFs was evaluated by fluorescence kinetics using highly purified recombinant Arf GTPases and ArfGEFs. […]

[1] = test system: tubulin and actin networks in Hela cells; experiment: Immunostaining and confocal microscopy of Hela cells; assay type: cell-based, human; settings: 50 μM, 30 min
Experimental: FIG. 10: Bragsin2 has no effect on the tubulin and actin networks in Hela cells. HeLa cells were treated with either DMSO (0.25%) or Bragsin2 (50 μM) for 30 min, immunostained for α-tubulin (green channel) or F-actin (magenta channel) and analysed by confocal microscopy.
Hela cells were grown in Dulbecco's modified Eagle's medium supplemented with Glutamax™ and 10% fetal bovine serum (Invitrogen). For immunofluorescence studies, cells were grown on Labtek glass slides (Nunc) and transfected for 18 to 24 h using Lipofectamine 2000 (Invitrogen), according to the supplier's instructions. […]
Immunostaining procedure was as described in (Viaud, J. et al. Structure-based discovery of an inhibitor of Arf activation by Sec7 domains through targeting of protein-protein complexes. Proc Natl Acad Sci USA 104, 10370-5 (2007)) except that secondary antibody incubation was performed for 1h using Alexa 488-conjugated goat anti-mouse (1:600) or donkey anti-sheep (1:500) IgG and Alexa 647-conjugated phalloidin (1:100). […] Images were bidirectionally recorded using an inverted Leica TCS SP8 laser-scanning confocal microscope with a 100× (N. A. 1.40) oil objective (HCX APO, Leica). Fluorochromes were detected sequentially using excitation laser lines at 488 nm (Alexa 488), 594 nm (mCherry) and 633 nm (Alexa 647). […]

Row | Effect on Rac1/Trio exchange activity on liposomes (Rac1/Trio) | Structure (SMILES) | Effect on tubulin and actin networks [1]
1 | no effect | Cc1ccc2oc(C(F)(F)F)cc(=O)c2c1[N+](=O)[O-] [Bragsin1, 6-methyl-5-nitro-2-(trifluoromethyl)-4H-chromen-4-one] | 
2 |  | COc1ccc2oc(C(F)(F)F)cc(=O)c2c1[N+](=O)[O-] [Bragsin2, 6-methoxy-5-nitro-2-(trifluoromethyl)-4H-chromen-4-one] | no effect
